One test deals with IL-1β. The test is described as follows: P. acnes-induced IL-1β release in THP-1 cells (ELISA). It is filed as cell-based. Particulars: 25 μg/ml, 100% = P. acnes induced cells. Here is the method:
Method: Preparation of Stimulant for Inflammation: P. acnes culture suspension was prepared in PBS and the cell number in the suspension was adjusted to approximately 5×10^8 CFU/ml by measuring the cell density using a Densimat. The bacterial suspension was then heat killed at 80° C. for 30 min and stored at −80° C. until further use.
Cells were seeded in a 96-well format (2×10^5 THP-1 cells per well) in media containing 10% FBS. The cells were stimulated to induce inflammatory cytokines using 3 McFarland equivalent heat-killed P. acnes. Cells in control wells were treated with PBS. One hour after induction with P. acnes, test agents were added to the induced cells at appropriate concentrations to be tested (compound 91 at 25 μg/ml). The plates were incubated at 37° C. for 24 hours. After 24 h, the plates were centrifuged to pellet the cells and the supernatants were collected. The cell culture supernatants thus obtained were analyzed for levels of cytokines (IL-1α, IL-1β, IL-6 and IL-8) by ELISA using R&D Systems kits for individual cytokines following the manufacturer's instructions.

The subject of the next test is S. aureus MTCC 6908. The test is described as follows: MIC by micro broth dilution, laboratory S. aureus strain. It is filed as cell-based, Staphylococcus aureus. The conditions noted are these: Staphylococcus aureus, MTCC6908; Table 6; read-out: MIC Susceptible S. aureus (6908) strain. How it is done:
The plates were incubated at 37° C. for 48 h under anaerobic condition for P. acnes and 37° C. for 24 h for S. aureus The plates were read under Bio-Rad plate reader at 595 nm for optical density to generate the dose-response curves. The MIC of the test compound was recorded by addition of Alamar blue dye.
S. aureus MTCC 6908 were grown in Tryptone Soya Agar (TSA) at 37° C. for 24 hours. […] Plates were incubated at 37° C. for 24 hours. […] (2) Zone of Inhibition (ZOI): S. aureus MTCC 6908 were grown in Tryptone Soya Agar (TSA) at 37° C. for 24 hours. BHA plates are spreaded with 100 μl of 0.5 McFarland standard equal bacterial suspension. Test samples (drugs/formulations) were dissolved in water/solvent based on the solubility. Sterile disc (6 mm) were loaded with 10 μl of test samples (of various concentration of drug), and were placed above the spreaded plates. Plates were incubated at 37 C for 24 h, followed by ZOI measurement. (3) Time Kill Assay: 0.5 McFarland standard equal S. aureus culture was prepared in sterile water. Besifloxacin gels were diluted in Tryptone Soya broth (TSB) to get final concentration of 25 μg/ml. Then 900 μl of S. aureus 0.5 McFarland standard equal culture and 100 μl of diluted Besifloxacin gel was mixed to obtain final Besifloxacin concentration, 2.5 μl g/ml. Total reaction mixture (1 ml) was incubated at 37° C. in a tube rotator. After 2 and 6 h exposure, bacterial suspension was placed on Tryptone soya agar plate and incubated at 37° C. for 24 h.
Inoculated plates were incubated at 37° C. for 24 hours.

In a further test the target is T1, E. coli DNA gyrase (Escherichia coli, UniProt P0AES4+P0AES6).
T1 construct: purchased Topogen Inc
T1 sequence (P0AES4 whole entry, one chain of several): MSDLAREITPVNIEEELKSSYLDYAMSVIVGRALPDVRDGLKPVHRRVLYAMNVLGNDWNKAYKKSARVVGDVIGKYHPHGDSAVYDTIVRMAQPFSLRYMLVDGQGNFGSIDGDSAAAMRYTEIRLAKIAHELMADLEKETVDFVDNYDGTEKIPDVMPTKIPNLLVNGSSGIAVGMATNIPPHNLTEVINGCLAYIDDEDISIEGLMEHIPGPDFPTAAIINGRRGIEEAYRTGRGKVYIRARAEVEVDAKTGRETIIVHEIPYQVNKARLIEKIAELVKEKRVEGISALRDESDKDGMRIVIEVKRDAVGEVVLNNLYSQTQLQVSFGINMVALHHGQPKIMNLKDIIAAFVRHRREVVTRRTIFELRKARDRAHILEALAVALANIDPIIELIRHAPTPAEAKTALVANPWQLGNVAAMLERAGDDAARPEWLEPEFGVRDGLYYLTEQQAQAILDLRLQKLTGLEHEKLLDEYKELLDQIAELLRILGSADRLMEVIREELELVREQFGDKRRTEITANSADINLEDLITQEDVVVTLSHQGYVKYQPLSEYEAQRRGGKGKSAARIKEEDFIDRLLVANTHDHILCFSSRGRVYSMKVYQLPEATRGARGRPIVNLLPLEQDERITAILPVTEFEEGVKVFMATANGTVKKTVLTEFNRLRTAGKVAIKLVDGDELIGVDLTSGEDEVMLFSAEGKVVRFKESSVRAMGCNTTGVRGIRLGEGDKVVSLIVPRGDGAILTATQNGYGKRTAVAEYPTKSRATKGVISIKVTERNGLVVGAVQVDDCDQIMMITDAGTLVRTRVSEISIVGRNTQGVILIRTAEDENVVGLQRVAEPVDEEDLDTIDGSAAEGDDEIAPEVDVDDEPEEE
The test is described as follows: DNA gyrase super-coiling activity assay (Topogen kit, relaxed pHOT1 plasmid). It counts as biochemical. The conditions noted are these: for Super-coiled band (percentage of DNA super-coiling): untreated control 100%; for Inhibition of super-coiling activity of DNA gyrase (in words): 1 μM and 2.5 μM. How it is done: DNA super-coiling activity was assayed using DNA gyrase assay kit (Topogen Inc.) with relaxed pHOT1 E. coli plasmid DNA according to manufacturer's protocol. The standard reaction mixture (20 μl) contained 35 mM Tris-HCl (pH 7.5), 24 mM KCl, 4 mM MgCl2, 2 mM dithiothreitol, 1.8 mM spermidine, 1 mM ATP, 6.5% glycerol, 0.1 mg/ml bovine serum albumin (BSA), 10 μg/ml relaxed pHOT1 plasmid DNA and 1 U of DNA gyrase. The reaction mixture was incubated at 37° C. for 1 h in presence of selected compounds/fluoroquinolone at different concentrations. The reaction was terminated by addition of ⅕ volume of loading dye (4 μl) followed by proteinase K (50 μg/ml) and again incubated at 37° C. for half an hour. 20 μl chloroform/isoamyl alcohol (24:1) was added to each tube and vortexed briefly. Thereafter, the blue aqueous phase was separated out and analyzed by 1% agarose gel electrophoresis. The gel was stained by ethidium bromide for half an hour and destained with water for 15 mins. The gel was then visualized in a trans-illuminator and photographed.

In brackets after ≈: the same amount, converted by molar mass. Entries after “also recorded” stand apart in the source; their conditions may differ.

As to `Cc1ncc([N+](=O)[O-])n1CC(O)CN1CCN(c2cc3c(cc2F)c(=O)c(C(=O)O)c2n3C(C)S2)CC1` (stereo not shown) [Compound 91, 6-Fluoro-7-{4-[2-hydroxy-3-(2-methyl-5-nitro-imidazol-1-yl)-propyl]-piperazin-1-yl}-1-methyl-4-oxo-4H-2-thia-8b-aza-cyclobuta[a]naphthalene-3-carboxylic acid], the figures for the “Percentage reduction in P. acnes induced IL-1β release” value in the test on IL-1β and in the test on IL-1β (listed as compound 91) were 20.49% and 20-25%, respectively. In the test on S. aureus MTCC 6908, the MIC is 1.5 µg/mL (≈ 2.82 µM). Moreover, the “Super-coiled band (percentage of DNA super-coiling)” value at E. coli DNA gyrase (0.25 μM) is “around 54.3%”; at E. coli DNA gyrase (5 μM), “about 2%”. The “Inhibition of super-coiling activity of DNA gyrase (in words)” value on E. coli DNA gyrase is reported as “best gyrase inhibiting activity; also recorded: greater efficacy”; on E. coli DNA gyrase (listed as compound 91) it was “able to inhibit the super-coiling activity; also recorded: highly potent; also recorded: better efficacy; also recorded: most potent”.

These data come from patent publication US10071103B2, “Treatments for resistant acne” (VYOME BIOSCIENCES PVT. LTD., priority 2014, dated 2018).
